By IC50 is commonly meant the concentration that gives 50% inhibition.

What all share (format): cell-based, human
One test concerns LNCaP cells. Briefly: WST-1 cell proliferation assay, LNCaP. The following applies: for IC50: Homo sapiens, LNCaP, 72 h, WST-1, three days of exposure, mean ± SD, n = 3; for IC50 (Silibinin)/IC50(Derivative) LNCaP: fold potency relative to silibinin. Here is the method:
(§1) The in vitro antiproliferative activities of six 7-O-substituted and 26 3-O-substituted silybin derivatives were evaluated using the WST-1 cell proliferation assay, according to the procedure as described in the Experimental Section in both androgen-sensitive (LNCaP) and androgen-insensitive (PC-3 and DU145) human prostate cancer cell lines. Silibinin and docetaxel were used as a positive control for comparison in the parallel experiments and the IC50 values calculated from the dose-response curves are summarized in Table 1. […] A three-carbon linker in 11 and 29, as well as a five-carbon linker in 31, 37 and 40, are beneficial to the potency.
(§2) All cell lines were initially purchased from American Type Culture Collection (ATCC^TM) (Manassas, VA, USA). The PC-3 and LNCaP prostate cancer cell lines were routinely cultured in RPIM-1640 medium supplemented with 10% FBS and 1% penicillin/streptomycin. The DU145 prostate cancer cells were routinely cultured in Eagle’s Minimum Essential Medium (EMEM) supplemented with 10% FBS and 1% penicillin/streptomycin. Cultures were maintained in a high humidity environment supplemented with 5% carbon dioxide at a temperature of 37 °C.
(§3) PC-3, DU145, or LNCaP cells were plated in 96-well plates at a density of 3,200 per well in 200 µL of culture medium. The cells were then separately treated with silibinin, or synthesized silibinin derivatives, at five different doses for three days, while equal treatment volumes of DMSO (0.25%) were used as the vehicle control. The cells were cultured in a CO2 incubator at 37 °C for three days. A total of 10 µL of the premixed WST-1 cell proliferation reagent (Clontech) was added to each well. After mixing gently for one min on an orbital shaker, the cells were incubated for an additional 3 h at 37 °C. To ensure a homogeneous distribution of color, it is important to mix gently on an orbital shaker for one min. The absorbance of each well was measured using a microplate reader (Synergy HT, BioTek, Winooski, VT, USA) at a wavelength of 430 nm. […] For calculating the IC50 values, a linear proliferative inhibition was made based on at least five dosages for each compound.
A general note: Formazan colour is commonly taken as a measure of viable cells.

A further test relates to PC-3 cells. Briefly: WST-1 cell proliferation assay, PC-3. The note with it: for IC50: Homo sapiens, PC-3, 72 h, WST-1, three days of exposure, mean ± SD, n = 3; for IC50 (Silibinin)/IC50(Derivative) PC-3: fold potency relative to silibinin. Here is the method:
as §1, §2, §3

Another test concerns DU145 cells. The experiment in a line: WST-1 cell proliferation assay, DU145. The following applies: for IC50: Homo sapiens, DU-145, 72 h, WST-1, three days of exposure, mean ± SD, n = 3; for IC50 (Silibinin)/IC50(Derivative) DU145: fold potency relative to silibinin. Here is the method: as §1, §2, §3

Regarding `CCN(CC)CCCOc1cc(OC)c2c(=O)c(OC)c(-c3ccc4c(c3)OC(c3ccc(OC)c(OC)c3)C(CO)O4)oc2c1` (stereo not drawn) [Compound 10], in the test with LNCaP cells, the IC50 stood at 7.49 ± 0.16 µM and the “IC50 (Silibinin)/IC50(Derivative) LNCaP” value came to 6. Further, in the test with PC-3 cells, the IC50 was found to be 9.92 ± 0.43 µM and the “IC50 (Silibinin)/IC50(Derivative) PC-3” value came to 7. Also, in the test with DU145 cells, the IC50 was 8.62 ± 0.32 µM and the “IC50 (Silibinin)/IC50(Derivative) DU145” value is 11.
Consider `COc1cc(OC)c2c(=O)c(OCCCCCN3CCN(C)CC3)c(-c3ccc4c(c3)OC(c3ccc(OC)c(OC)c3)C(CO)O4)oc2c1` (stereo not drawn) [Compound 45], for which, in the test on LNCaP cells, the IC50 was found to be 5.66 ± 0.44 µM and the “IC50 (Silibinin)/IC50(Derivative) LNCaP” value is on record as 8. In the test on PC-3 cells, the IC50 was found to be 4.72 ± 0.88 µM and the “IC50 (Silibinin)/IC50(Derivative) PC-3” value was determined as 15. For the same molecule, in the test on DU145 cells, the IC50 was 8.59 ± 2.23 µM and the “IC50 (Silibinin)/IC50(Derivative) DU145” value is on record as 11.
For the molecule `COc1cc(OC)c2c(=O)c(OCCCCN3CCNCC3)c(-c3ccc4c(c3)OC(c3ccc(OC)c(OC)c3)C(CO)O4)oc2c1` (stereo not drawn) [Compound 42], in the test on LNCaP cells, the IC50 amounted to 4.58 ± 1.77 µM and the “IC50 (Silibinin)/IC50(Derivative) LNCaP” value was found to be 10. In the test with PC-3 cells, the IC50 worked out at 5.3 ± 0.66 µM and the “IC50 (Silibinin)/IC50(Derivative) PC-3” value is 14. In addition, in the test with DU145 cells, the IC50 was found to be 6.85 ± 0.77 µM and the “IC50 (Silibinin)/IC50(Derivative) DU145” value was determined as 14.
Consider `COc1cc(OC)c2c(=O)c(OCCCCN3CCOCC3)c(-c3ccc4c(c3)OC(c3ccc(OC)c(OC)c3)C(CO)O4)oc2c1` (stereo not drawn) [Compound 39], for which, in the test with LNCaP cells, the IC50 is 2.84 ± 0.22 µM and the “IC50 (Silibinin)/IC50(Derivative) LNCaP” value is on record as 15. Besides, in the test with PC-3 cells, the IC50 amounted to 3.49 ± 0.24 µM and the “IC50 (Silibinin)/IC50(Derivative) PC-3” value came to 21. Moreover, in the test on DU145 cells, the IC50 turned out to be 6.36 ± 0.37 µM and the “IC50 (Silibinin)/IC50(Derivative) DU145” value was found to be 15.
On to `CCCCN(CCCC)CCCCOc1c(-c2ccc3c(c2)OC(c2ccc(OC)c(OC)c2)C(CO)O3)oc2cc(OC)cc(OC)c2c1=O` (stereo not drawn) [Compound 30], for which, in the test on LNCaP cells, the IC50 was determined as 3.84 ± 0.51 µM and the “IC50 (Silibinin)/IC50(Derivative) LNCaP” value is listed as 11. In the test on PC-3 cells, the IC50 was determined as 3.77 ± 0.41 µM and the “IC50 (Silibinin)/IC50(Derivative) PC-3” value is 19. In the test on DU145 cells, the IC50 was 3.07 ± 0.51 µM and the “IC50 (Silibinin)/IC50(Derivative) DU145” value is 30.
With `COc1cc(OC)c2c(=O)c(OCCCCCBr)c(-c3ccc4c(c3)OC(c3ccc(OC)c(OC)c3)C(CO)O4)oc2c1` (stereo not drawn) [Compound 19], in the test with LNCaP cells, the IC50 was found to be 5.19 ± 2.08 µM and the “IC50 (Silibinin)/IC50(Derivative) LNCaP” value turned out to be 8. Further, in the test with PC-3 cells, the IC50 came out at 5.76 ± 1.36 µM and the “IC50 (Silibinin)/IC50(Derivative) PC-3” value is given as 13. In the test on DU145 cells, the IC50 was 8.13 ± 0.42 µM and the “IC50 (Silibinin)/IC50(Derivative) DU145” value stood at 11.

(Values after paper PMC6320956, “O-Aminoalkyl-O-Trimethyl-2,3-Dehydrosilybins: Synthesis and In Vitro Effects Towards Prostate Cancer Cells” (Molecules, 2018).)
